The text below walks through data of patent publication US20260242416A1, “ANTIMICROBIAL PEPTIDES” (priority 2023, published 2026).

Where a SMILES comes first, the peptide text is derived from it. Some results are limits rather than exact numbers.

Experiment [1] deals with E. coli ATCC 25922, Salmonella Enteritidis, S. aureus ATCC 29213. Briefly: Broth microdilution, panel result (at least one / all strains), Example 2. On the set-up: key to inhibitory activity (asterisk): *Indicates inhibitory activity. The experiment is classed as cell-based. As to conditions: for inhibitory activity (asterisk): Table 14, against at least one of E. coli ATCC 25922, Salmonella Enteritidis, S. aureus ATCC 29213. As for the experimental part:
The antimicrobial activity of the putative AMPs was determined by a broth microdilution assay as described by the Clinical and Laboratory Standards Institute, with the published adaptations for testing of cationic peptides. Escherichia coli 25922 and Staphylococcus aureus 29213 isolates were purchased from the American Type Culture Collection (ATCC; Manassas, VA, USA). A human clinical isolate of Salmonella enterica serovar Enteritidis was provided by the BC Centre for Disease Control. Bacteria from stocks stored at −80° C. were streaked onto nonselective Columbia blood agar with 5% sheep blood (Oxoid) and incubated overnight at 37° C. Next, 2-4 colonies were streaked onto a new agar plate to ensure uniform health of colonies used in the broth microdilution assay. Isolated colonies were suspended in MHB and the optical density was measured with a spectrophotometer to create an initial inoculum concentration of approximately 1×10^8 cfu/mL. The inoculum was diluted 1:250 to a final concentration of 2-8×10^5 cfu/mL, which was confirmed by performing a Total Viability Count (TVC). The TVC consisted of plating a 1:1000 dilution of the final inoculum on nonselective media and was also used to confirm the health and purity of the inoculum in each trial.
Lyophilized 80 μg peptide aliquots synthesized by GenScript (Piscataway, NJ, USA) were resuspended to 1.28 mg/mL with UltraPure water (Thermo Fisher Scientific, Waltham, MA, USA) and serially diluted in polypropylene 96-well microtiter plates (Greiner Bio-One #650261, Kremsmunster, Austria) from 128 down to 0.5 μg/mL. Two columns per plate were reserved for growth and sterility controls. Inoculum was added to the wells containing the peptide and the growth control. Plates were incubated for 20-24 h at 37° C. The minimum inhibitory concentration (MIC) was determined as the lowest peptide concentration where there was no visible bacterial growth.

Experiment [2] deals with E. coli ATCC 25922. The experiment is classed as cell-based, Escherichia coli. As to conditions: ATCC 25922. The gist of the method:
(§1)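 CLSI broth microdilution adapted for cationic peptides, in Mueller-Hinton broth, inoculum 2-8×10^5 cfu/mL. Peptides serially diluted from 128 to 0.5 μg/mL in polypropylene plates, incubated 20-24 h at 37° C. MIC = lowest concentration without visible growth.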

Experiment [3] deals with Salmonella enterica serovar Enteritidis (human clinical isolate). The experiment is classed as cell-based. As to conditions: serovar Enteritidis (human clinical isolate). The method in brief:
as §1

Experiment [4] concerns S. aureus ATCC 29213. The experiment is classed as cell-based, Staphylococcus aureus. As to conditions: ATCC 29213. The gist of the method:
as §1

With `CC[C@H](C)[C@H](NC(=O)CN)C(=O)N[C@@H](CC(C)C)C(=O)N[C@@H](CCCNC(=N)N)C(=O)N[C@@H](CO)C(=O)N[C@@H](CC(C)C)C(=O)NCC(=O)N[C@@H](Cc1c[nH]c2ccccc12)C(=O)N[C@H](C(=O)N[C@@H](CCC(N)=O)C(=O)N[C@@H](CCSC)C(=O)N1CCC[C@H]1C(=O)N[C@@H](CCCNC(=N)N)C(=O)N[C@@H](CO)C(=O)N[C@@H](CCCNC(=N)N)C(=O)N[C@@H](CCCNC(=N)N)C(=O)N[C@@H](CCCNC(=N)N)C(=O)N[C@@H](Cc1c[nH]cn1)C(=O)N[C@@H](CCCNC(=N)N)C(=O)O)[C@@H](C)CC` [AnFI2, GILRSLGWIQMPRSRRRHR] (H-GILRSLGWIQMPRSRRRHR-OH; N-terminus and C-terminus assumed), in experiment [1], the “inhibitory activity (asterisk)” value is 721.* GILRSLGWIQMPRSRRRHR.
For the molecule `CC[C@H](C)[C@H](NC(=O)CN)C(=O)N[C@@H](Cc1ccc(O)cc1)C(=O)N[C@H](C(=O)NCC(=O)N[C@@H](CCCNC(=N)N)C(=O)N[C@@H](CC(C)C)C(=O)N[C@@H](CC(C)C)C(=O)N1CCC[C@H]1C(=O)N[C@H](C(=O)N[C@@H](Cc1ccc(O)cc1)C(=O)N[C@H](C(=O)N1CCC[C@H]1C(=O)N[C@@H](CCC(N)=O)C(=O)N1CCC[C@H]1C(=O)N[C@@H](CCCNC(=N)N)C(=O)N1CCC[C@H]1C(=O)N1CCC[C@H]1C(=O)N[C@@H](Cc1c[nH]cn1)C(=O)N1CCC[C@H]1C(=O)N[C@@H](CCCNC(=N)N)C(=O)N[C@@H](CC(C)C)C(=O)N[C@@H](CCCNC(=N)N)C(=O)N[C@@H](CCCNC(=N)N)C(=O)O)[C@@H](C)CC)C(C)C)[C@@H](C)O` [ApCe1] (H-GIYTGRLLPVYIPQPRPPHPRLRR-OH; N-terminus and C-terminus assumed), the “inhibitory activity (asterisk)” value in experiment [1] is recorded as 695.* GIYTGRLLPVYIPQPRPPHPRLRR. Also, the “spectrum of antimicrobial activity” value in experiment [1] (panel of E. coli, Salmonella Enteritidis, S. aureus, up to 128 μg/mL) was “antimicrobial activity against Gram-negative bacterial species but not Gram-positives”.
Regarding `CC[C@H](C)[C@H](NC(=O)CN)C(=O)N[C@@H](CC(C)C)C(=O)N[C@@H](CCCNC(=N)N)C(=O)N[C@@H](CC(C)C)C(=O)N[C@H](C(=O)N[C@H](C(=O)N[C@@H](CCCNC(=N)N)C(=O)N[C@@H](CCCNC(=N)N)C(=O)N[C@@H](Cc1ccccc1)C(=O)N[C@@H](CCCNC(=N)N)C(=O)N[C@@H](Cc1ccccc1)C(=O)N[C@@H](CO)C(=O)N1CCC[C@H]1C(=O)N[C@H](C(=O)N[C@@H](CC(N)=O)C(=O)N[C@@H](CC(C)C)C(=O)N[C@@H](CC(N)=O)C(=O)N[C@@H](CCCNC(=N)N)C(=O)N[C@@H](Cc1ccc(O)cc1)C(=O)N[C@H](C(=O)N[C@H](C(=O)N[C@@H](C)C(=O)N[C@@H](CCCNC(=N)N)C(=O)N[C@@H](CC(C)C)C(=O)N[C@H](C(=O)N[C@@H](CO)C(=O)NCC(=O)N[C@H](C(=O)N1CCC[C@H]1C(=O)O)C(C)C)C(C)C)C(C)C)[C@@H](C)O)[C@@H](C)O)[C@@H](C)O)C(C)C` [BoAr6] (H-GILRLVTRRFRFSPTNLNRYTVARLVSGVP-OH; N-terminus and C-terminus assumed), in experiment [1], the “inhibitory activity (asterisk)” value is 790.* GILRLVTRRFRFSPTNLNRYTVARLVSGVP.
Turning to `CC[C@H](C)[C@H](NC(=O)[C@H](CCCCN)NC(=O)[C@@H](N)CCCNC(=N)N)C(=O)N[C@H](C(=O)N[C@@H](C)C(=O)N[C@H](C(=O)N[C@@H](CO)C(=O)N[C@H](C(=O)N[C@@H](Cc1c[nH]cn1)C(=O)N[C@@H](CCCCN)C(=O)N[C@@H](CC(C)C)C(=O)N[C@@H](CS)C(=O)N[C@@H](CCCNC(=N)N)C(=O)N[C@H](C(=O)N[C@@H](CCCCN)C(=O)N[C@@H](CCCNC(=N)N)C(=O)O)C(C)C)C(C)C)C(C)C)[C@@H](C)CC` [BoUs1, RKIIAVSVHKLCRVKR] (H-RKIIAVSVHKLCRVKR-OH; N-terminus and C-terminus assumed), the “inhibitory activity (asterisk)” value in experiment [1] is given as 815.* RKIIAVSVHKLCRVKR.
Consider `CC[C@H](C)[C@H](NC(=O)[C@@H](N)Cc1ccccc1)C(=O)N[C@@H](CCCCN)C(=O)N[C@H](C(=O)N[C@@H](CCC(N)=O)C(=O)N[C@H](C(=O)N[C@@H](CC(C)C)C(=O)N[C@@H](CCCCN)C(=O)N[C@@H](Cc1c[nH]cn1)C(=O)N[C@@H](CC(C)C)C(=O)N[C@H](C(=O)N[C@@H](C)C(=O)NCC(=O)N[C@H](C(=O)N[C@@H](CCCNC(=N)N)C(=O)N[C@H](C(=O)N[C@@H](C)C(=O)N[C@@H](CCCNC(=N)N)C(=O)NCC(=O)N[C@@H](CC(C)C)C(=O)N[C@@H](CC(=O)O)C(=O)N[C@@H](Cc1c[nH]c2ccccc12)C(=O)N[C@@H](CCCCN)C(=O)N[C@@H](Cc1c[nH]c2ccccc12)C(=O)N[C@@H](CCCNC(=N)N)C(=O)O)C(C)C)C(C)C)C(C)C)C(C)C)[C@@H](C)O` [CaCa2] (H-FIKTQVLKHLVAGVRVARGLDWKWR-OH; N-terminus and C-terminus assumed), for which the “inhibitory activity (asterisk)” value in experiment [1] is listed as 819.* FIKTQVLKHLVAGVRVARGLDWKWR.
For the molecule `CC[C@H](C)[C@H](NC(=O)[C@H](CCCCN)NC(=O)[C@H](CS)NC(=O)[C@H](Cc1ccccc1)NC(=O)[C@H](CCCCN)NC(=O)[C@H](CCCNC(=N)N)NC(=O)[C@H](CO)NC(=O)[C@H](Cc1ccc(O)cc1)NC(=O)CNC(=O)[C@H](CS)NC(=O)[C@@H]1CCCN1C(=O)[C@H](C)NC(=O)[C@@H](NC(=O)[C@H](C)NC(=O)[C@H](Cc1ccccc1)NC(=O)[C@H](Cc1ccccc1)NC(=O)[C@H](Cc1ccccc1)NC(=O)[C@H](CCCNC(=N)N)NC(=O)[C@@H](N)CCCNC(=N)N)[C@@H](C)O)C(=O)N[C@H](C(=O)N[C@@H](CCCNC(=N)N)C(=O)N[C@@H](CCCNC(=N)N)C(=O)N[C@@H](CCCCN)C(=O)N[C@@H](CCCNC(=N)N)C(=O)O)[C@@H](C)O` [CaCa4] (H-RRFFFATAPCGYSRKFCKITRRKR-OH; N-terminus and C-terminus assumed), the “inhibitory activity (asterisk)” value in experiment [1] is recorded as 816.* RRFFFATAPCGYSRKFCKITRRKR.
For `CC(C)C[C@H](NC(=O)[C@@H](NC(=O)[C@H](Cc1ccccc1)NC(=O)[C@H](C)NC(=O)CN)C(C)C)C(=O)N[C@@H](Cc1c[nH]c2ccccc12)C(=O)NCC(=O)N1CCC[C@H]1C(=O)N[C@H](C(=O)N1CCC[C@H]1C(=O)N[C@@H](CCCNC(=N)N)C(=O)N1CCC[C@H]1C(=O)N[C@@H](CCCNC(=N)N)C(=O)N[C@@H](CCCNC(=N)N)C(=O)N[C@@H](CCCNC(=N)N)C(=O)O)[C@@H](C)O` [DiLo1, GAFVLWGPTPRPRRR] (H-GAFVLWGPTPRPRRR-OH; N-terminus and C-terminus assumed), in experiment [1], the “inhibitory activity (asterisk)” value is reported as 864.* GAFVLWGPTPRPRRR.
As for `CC(C)C[C@H](NC(=O)CNC(=O)[C@H](Cc1ccccc1)NC(=O)[C@@H]1CCCN1C(=O)[C@@H](N)C(C)C)C(=O)N[C@@H](CCCCN)C(=O)N1CCC[C@H]1C(=O)N[C@@H](CCCNC(=N)N)C(=O)O` [TeRu1, VPFGLKPR] (H-VPFGLKPR-OH; N-terminus and C-terminus assumed), in experiment [2], the “MIC (ug/mL) E. coli” value was >128/>128/>128 ug/mL. Moreover, the “MIC (ug/mL) S. Enteritidis” value in experiment [3] is >128/>128/>128 ug/mL. In addition, the “MIC (ug/mL) S. aureus” value in experiment [4] is given as >128/>128/>128 ug/mL.
With `CC(C)C[C@H](NC(=O)[C@H](Cc1ccccc1)NC(=O)[C@H](CC(C)C)NC(=O)[C@H](CCCCN)NC(=O)[C@H](Cc1c[nH]cn1)NC(=O)[C@@H](NC(=O)[C@H](Cc1ccccc1)NC(=O)[C@H](CO)NC(=O)[C@H](CC(C)C)NC(=O)[C@@H](NC(=O)[C@H](C)N)C(C)C)C(C)C)C(=O)N[C@@H](CC(N)=O)C(=O)N[C@@H](Cc1ccccc1)C(=O)N[C@@H](CC(C)C)C(=O)N[C@@H](Cc1c[nH]cn1)C(=O)N[C@H](C(=O)N[C@@H](CC(=O)O)C(=O)N[C@H](C(=O)N[C@@H](CO)C(=O)N[C@@H](CCCCN)C(=O)NCC(=O)N[C@@H](CCCCN)C(=O)N[C@@H](CS)C(=O)N[C@@H](CCCNC(=N)N)C(=O)N[C@@H](C)C(=O)N[C@H](C(=O)N[C@@H](CC(C)C)C(=O)N[C@@H](CCC(N)=O)C(=O)O)[C@@H](C)O)[C@@H](C)O)C(C)C` [TeRu3] (H-AVLSFVHKLFLNFLHVDTSKGKCRATLQ-OH; N-terminus and C-terminus assumed), the “MIC (ug/mL) E. coli” value in experiment [2] is listed as >128/>128/>128 ug/mL. In experiment [3], the “MIC (ug/mL) S. Enteritidis” value is >128/>128/>128 ug/mL. In addition, the “MIC (ug/mL) S. aureus” value in experiment [4] was >128/>128/>128 ug/mL.
As to `CC[C@H](C)[C@H](NC(=O)[C@@H](N)Cc1ccccc1)C(=O)N[C@@H](CC(C)C)C(=O)N[C@@H](Cc1c[nH]cn1)C(=O)N[C@@H](C)C(=O)N[C@@H](CCCCN)C(=O)N[C@@H](CCCCN)C(=O)N[C@H](C(=O)N[C@@H](CCCNC(=N)N)C(=O)N[C@@H](CO)C(=O)N[C@@H](C)C(=O)N[C@@H](CCCCN)C(=O)O)[C@@H](C)O` [VeSi1, FILHAKKTRSAK] (H-FILHAKKTRSAK-OH; N-terminus and C-terminus assumed), the “MIC (ug/mL) E. coli” value in experiment [2] is on record as >128/>128/>128 ug/mL. Besides, in experiment [3], the “MIC (ug/mL) S. Enteritidis” value is >128/>128/>128 ug/mL. In addition, in experiment [4], the “MIC (ug/mL) S. aureus” value is >128/>128/>128 ug/mL.
